Consider two compounds from patent publication US8673371B2, “Composition for treating vitiligo or canities comprising extract from sophora japonica as active ingredient” (Keimyung University Industry Academic Cooperation Foundation, priority 2010, dated 2014).

The structures appear in SMILES notation.

A short description of data set [1]: Electron donating ability (Blois' method, DPPH). On the procedure:
Electron donating ability was measured according to the Blois' method (Blois 1958). Freeze-dried powder of Sophora japonica methanol extract was dissolved in DMSO at concentrations of 100, 500 and 1,000 μg/mL. After taking 1 mL to a test tube and adding 4 mL of 4×10^−4 M DPPH solution, followed by agitating in a water bath of 60° C. for 10 seconds and allowing to stand at room temperature for 20 minutes, absorbance was measured at 525 nm. For the non-extract-treated group, 1 mL of methanol was added instead of the sample. Electron donating ability was calculated from the difference in absorbance relative to the non-treated group. The synthetic antioxidant BHT was used as positive control.

The target in data set [2] is T1, tyrosinase (Mus musculus, UniProt P11344).
T1 construct: the cells were lysed by adding 200 μL of 1% Triton X-100 solution; endogenous in cells; host or cells: Melan-a cells (immortalized C57BL/6 mouse melanocytes)
T1 sequence (P11344 19-533): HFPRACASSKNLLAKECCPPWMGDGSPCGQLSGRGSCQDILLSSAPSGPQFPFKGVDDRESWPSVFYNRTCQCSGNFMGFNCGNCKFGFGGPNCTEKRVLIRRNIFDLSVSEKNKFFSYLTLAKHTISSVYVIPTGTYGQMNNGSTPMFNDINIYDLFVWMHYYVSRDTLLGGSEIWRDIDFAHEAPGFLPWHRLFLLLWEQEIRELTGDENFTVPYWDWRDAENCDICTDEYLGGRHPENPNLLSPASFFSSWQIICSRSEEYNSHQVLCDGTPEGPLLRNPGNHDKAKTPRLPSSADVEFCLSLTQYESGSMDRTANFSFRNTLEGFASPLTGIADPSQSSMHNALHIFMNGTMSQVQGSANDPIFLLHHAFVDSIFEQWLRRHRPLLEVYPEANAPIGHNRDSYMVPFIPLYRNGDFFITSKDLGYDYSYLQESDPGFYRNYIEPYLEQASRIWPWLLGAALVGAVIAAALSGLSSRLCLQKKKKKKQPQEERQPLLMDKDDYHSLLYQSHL
Nature of the data set: Activity of cell-extracted tyrosinase. The settings on record: 12.5 μg/mL, Melan-a cell extract. Type of data set: biochemical, C57BL/6 mouse. Here is the method:
After washing with PBS and lysing by adding 200 μL of 1% Triton X-100, the lysed cells were transferred to an e-tube and vortexed on ice with 10-minute intervals. After about 1 hour, centrifuge was carried out at 4° C. and 14,000 rpm for 20 minutes. 50 μL of the supernatant was mixed with 49 μL of 0.1 M phosphate buffer (pH 6.8) and 1 μL of Sophora japonica methanol extract at various concentrations (6.25, 12.5, 25 and 50 μg/mL). After allowing to stand for 1 hour, 100 μL of L-DOPA was added. Then, after incubation in a 10% CO2 incubator at 37° C. for 60 minutes, absorbance was measured at 490 nm. IBMX was used as positive control.

The test system of the next data set is TRP-2 mRNA. Nature of the data set: RT-PCR, expression of TRP-2 mRNA. It is filed as cell-based, C57BL/6 mouse. The settings on record: 12.5 μg/mL, Melan-a cells. Here is the method: (§1) Total RNA was prepared using Trizol reagent (Invitrogen, Caylsbad, Calif.) according to the manufacturer's instructions. 5 μg of total RNA was subjected to reverse transcription with 8 μL of M-MLV RT 5× buffer, 3 μL of 10 mM dNTPs, 0.45 μL of 10,000 U RNase inhibitor, 0.3 μL of 50,000 U M-MLV reverse transcriptase (Promega, Madison, USA) and 1.5 μL of 50 pmol/μL oligo dT (Bioneer, Daejeon, Korea). Single-stranded cDNA was amplified by PCR in a reaction solution containing 4 μL of 5× green Go Taq flexi buffer, 0.4 μL of 10 mM dNTPs, 0.1 μL of 500 U Taq polymerase, 1.2 μL of 25 mM MgCl2 (Promega, Madison, USA) and 0.4 μL of 20 pmol/μL sense and antisense primers of tyrosinase, […] or β-actin. Sequences of the primers used in the PCR and expected PCR product size are shown in Table 1. β-actin was used as internal standard (51° C., 30 cycles), and test substances were tyrosinase (56° C., 28 cycles), TRP-1 (56° C., 28 cycles), TRP-2 (64° C., 28 cycles) and MITF-M (54° C., 30 cycles). The PCR product was analyzed by electrophoresis on 1.2% agarose gel.

Data set [3] has as its system Melan-a cells. The settings on record: mouse, 48 h.
Method: Melan-a cells, which are immortalized cells derived from C57BL/6 mouse, were cultured in a 37° C., 10% CO2 incubator using RPMI-1640 medium containing 10% fetal bovine serum (FBS) 1% penicillin/streptomycin (P/S) and 200 nM 12-O-tetradecanoylphorbol 13-acetate (TPA).
The MTT assay is a typical technique of measuring cell viability. Upon absorption into cells, 3-(4,5-Dimethylthiazol-2-yl)-2,5-diphenyltetrazolium bromide (MTT) is reduced by succinate dehydronase in mitochondria to formazan. Thus, accumulation of this substance in cells is a measure of mitochondrial activity or, in a broader sense, cell activity. Melan-a cells were stabilized in RPMI-1640 medium containing 10% FBS, 1% P/S and 200 nM TPA in a 10% CO2 incubator at 37° C. for 48 hours before carrying out experiment. The Melan-a cells were seeded on a 96 well plate (0.5×10^4 cells/well) and cultured in a 10% CO2 incubator at 37° C. for 24 hours. […] After dissolving the cells in a plate shaker for 15 minutes, absorbance was measured at 540 nm using an ELISA reader. Cell proliferation was calculated according to the following equation: Cell proliferation (%)=(Absorbance of extract-treated group/Absorbance of non-extract-treated group)×100.
Data set [4] relates to tyrosinase. Nature of the data set: Intracellular tyrosinase activity. It is filed as cell-based, C57BL/6 mouse. As to conditions: 12.5 μg/mL, Melan-a cells. On the procedure: 4-5. […] Then, after removing the medium and washing with PBS, the cells were lysed by adding 200 μL of 1% Triton X-100 solution. The lysed cells were transferred to an e-tube and vortexed on ice with 10-minute intervals. After about 1 hour, centrifuge was carried out at 4° C. and 14,000 rpm for 20 minutes. The supernatant was subjected to tyrosinase activity measurement. Absorbance was measured using a protein assay solution (Bio-Rad, USA), and the protein quantity was calculated. Cell extract containing 40 μg of protein was mixed with the test substance to a total volume of 100 μL. After adding 100 μL of L-DOPA, followed by incubation in a 10% CO2 incubator at 37° C. for 60 minutes, absorbance was measured at 490 nm. IBMX was used as positive control.

The subject of another data set is tyrosinase mRNA. The data set can be described thus: RT-PCR, expression of tyrosinase mRNA. Type of data set: cell-based, C57BL/6 mouse. The settings on record: 12.5 μg/mL, Melan-a cells. Here is the method: as §1
Data set [5] deals with Melan-a cells. The data set can be described thus: Melanin producing ability. Type of data set: cell-based, C57BL/6 mouse. As to conditions: 12.5 μg/mL. On the procedure: Then, after treating again with the Sophora japonica methanol extract, the cells were further cultured for 72 hours. After dissolving melanin with 1 N NaOH solution, absorbance was measured at 490 nm. IBMX was used as positive control.

The test system of another data set is TRP-1 mRNA. The data set can be described thus: RT-PCR, expression of TRP-1 mRNA. Type of data set: cell-based, C57BL/6 mouse. The settings on record: 12.5 μg/mL, Melan-a cells, not significant. Here is the method: as §1
The next data set has as its system MITF-M mRNA. Nature of the data set: RT-PCR, expression of MITF-M mRNA. Type of data set: cell-based, C57BL/6 mouse. The settings on record: 12.5 μg/mL, Melan-a cells. On the procedure: as §1

Turning to `Cc1cc(C(C)(C)C)c(O)c(C(C)(C)C)c1` [BHT, 2,6-di-tert-butylated hydroxytoluene], the “Electron donating ability, concentration dependence” value in data set [1] (100, 500 and 1,000 μg/mL) was “positive (+) concentration-dependent relationship”. The compound also gave an Electron donating ability in [1] (at 1,000 μg/mL) of 85.0%.
For `CC(C)Cn1c(=O)n(C)c(=O)c2[nH]cnc21` [IBMX, 3-isobutyl-1-methylxanthine], the “Higher activity of cell-extracted tyrosinase compared with the control” value on tyrosinase [2] is 21.2%. Besides, the “Higher expression of TRP-2 mRNA compared with the control” value in the data set with TRP-2 mRNA amounted to 9%. Moreover, the “Maximum permissible level (MPL)” value with Melan-a cells [3] worked out at 12.5 µg/mL. Further, the “Higher intracellular tyrosinase activity compared with the control” value with tyrosinase [4] is recorded as 22.2%. Further, in the data set with tyrosinase mRNA, the “Higher expression of tyrosinase mRNA compared with the control” value is on record as 0.31%. In the data set on Melan-a cells [5], the “Higher melanin content compared with the control” value turned out to be 16.7%. For the same compound, in the data set on TRP-1 mRNA, the “Higher expression of TRP-1 mRNA compared with the control” value is 2%. In addition, the “Higher expression of MITF-M mRNA compared with the control” value with MITF-M mRNA is on record as 74%.
